Where two headings read alike, the source gives them in different places.
Biological target: T1, human α7 nicotinic acetylcholine receptor (HEK cell line stably expressing human RIC-3 and human α7) (Homo sapiens, UniProt P36544)
T1 construct: host or cells: HEK cell line (PrecisION hnAChR α7/RIC-3)
Assay: Automated patch-clamp electrophysiology functional assay (Assay A), IonFlux HT, whole-cell population patch
Format: cell-based

[1] = HEK cells expressing human α7/RIC-3, test compound with or without 40 μM acetylcholine, holding potential −60 mV, room temperature, read-out: α7 nAChR Potency
[2] = automated patch-clamp electrophysiology functional assay (Assay A), read-out: α7 nAChR EC50

T1 sequence (P36544 23-502): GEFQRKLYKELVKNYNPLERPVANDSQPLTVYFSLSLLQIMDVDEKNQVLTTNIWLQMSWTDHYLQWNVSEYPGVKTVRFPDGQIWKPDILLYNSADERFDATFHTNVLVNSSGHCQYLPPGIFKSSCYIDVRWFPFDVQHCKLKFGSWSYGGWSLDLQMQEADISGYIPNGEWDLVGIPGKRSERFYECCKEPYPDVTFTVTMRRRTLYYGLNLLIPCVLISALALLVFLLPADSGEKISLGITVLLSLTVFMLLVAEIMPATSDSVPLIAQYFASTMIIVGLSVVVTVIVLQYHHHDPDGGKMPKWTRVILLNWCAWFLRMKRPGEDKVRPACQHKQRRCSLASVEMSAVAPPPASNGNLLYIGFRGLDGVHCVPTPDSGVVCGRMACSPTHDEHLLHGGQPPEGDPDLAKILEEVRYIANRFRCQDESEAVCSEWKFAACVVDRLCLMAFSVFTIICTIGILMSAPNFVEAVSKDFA

`NS(=O)(=O)N1CCC2(CC1)C[C@H]2c1noc(-c2cccc(-c3ccc(F)cc3)c2)n1` [Example E74] was tested, and the EC50 [1] was 0.1 to 0.5 µM.

For `Cn1nccc1-c1nc([C@@H]2C(F)(F)C23CCN(S(N)(=O)=O)CC3)no1` [Example E43], the EC50 [1] was 0.1 to 0.5 µM and the EC50 [2] was 0.5 µM.

`COc1ccc(Cl)cc1-c1noc(C2CC23CCN(S(=O)(=O)NCc2ccccn2)CC3)n1` (racemic) [Example B11] showed an EC50 [1] of 0.5 to 5 µM and an EC50 [2] of 3.5 µM.

`COc1ccc(Cl)cc1-c1nc(C2CC23CCN(S(C)(=O)=O)CC3)no1` (single isomer, unassigned) [Example 26, 1-[5-(5-Chloro-2-methoxyphenyl)-1,2,4-oxadiazol-3-yl]-6-(methylsulfonyl)-6-azaspiro[2.5]octane] showed an EC50 [1] of 0.1 to 0.5 µM and an EC50 [2] of 0.48 µM.

For `COc1ccc(Cl)cc1-c1noc(C2CC23CCN(C(=O)NCc2ccns2)CC3)n1` (racemic) [Example B12], the EC50 [1] was 0.5 to 5 µM and the EC50 [2] was 3.4 µM.

Compound `NS(=O)(=O)N1CCC2(CC1)C[C@H]2c1csc(-c2conc2C2CC2)n1` [Example G2] has an EC50 [1] of 0.5 to 5 µM and an EC50 [2] of 0.91 µM.

In the case of `Cc1ccc(C)c(-c2nc([C@@H]3C(F)(F)C34CCN(S(N)(=O)=O)CC4)no2)c1` [Example 34, (2R)-2-[5-(2,5-Dimethylphenyl)-1,2,4-oxadiazol-3-yl]-1,1-difluoro-6-azaspiro[2.5]octane-6-sulfonamide], the EC50 [1] is reported as < 0.1 µM and the EC50 [2] is reported as 0.0045 µM.

For `NS(=O)(=O)N1CCC2(CC1)C[C@H]2c1nnc(-c2ccc(F)cc2C(F)(F)F)s1` [Example F9], the EC50 [1] was 0.5 to 5 µM and the EC50 [2] was 0.75 µM.

`NS(=O)(=O)N1CCC2(CC1)[C@H](c1csc(-c3conc3C3CC3)n1)C2(F)F` [Example G4] was tested, and the EC50 [1] was 0.1 to 0.5 µM and the EC50 [2] was 0.11 µM.

`CC(C)(C)n1ncc(-c2nc([C@@H]3C(F)(F)C34CCN(S(N)(=O)=O)CC4)no2)c1C(F)(F)F` [Example E39] gave an EC50 [1] of 0.1 to 0.5 µM and an EC50 [2] of 0.15 µM.

`NS(=O)(=O)N1CCC2(CC1)C[C@H]2c1noc(-c2ccnn2C2CC2)n1` [Example E30] was tested, and the EC50 [1] was 0.5 to 5 µM and the EC50 [2] was 0.78 µM.

`NS(=O)(=O)N1CCC2(CC1)C[C@H]2c1nnc(-c2ccc(F)cc2C(F)(F)F)o1` [Example F1] gave an EC50 [1] of 0.5 to 5 µM and an EC50 [2] of 1.5 µM.

For `NS(=O)(=O)N1CCC2(CC1)[C@H](c1noc(-c3c(C4CC4)noc3C(F)(F)F)n1)C2(F)F` [Example E55], the EC50 [1] was < 0.1 µM and the EC50 [2] was 0.03 µM.

With `NS(=O)(=O)N1CCC2(CC1)C[C@H]2c1nnc(-c2ccccc2OCC(F)(F)F)o1` [Example F6] the EC50 [1] was 0.5 to 5 µM and the EC50 [2] was 0.59 µM.

`NS(=O)(=O)N1CCC2(CC1)[C@H](c1noc(-c3cnn4c3CCC4)n1)C2(F)F` [Example E42] showed an EC50 [1] of 0.5 to 5 µM and an EC50 [2] of 1.1 µM.

`Cc1ccc(C)c(-c2nc([C@@H]3CC34CCN(S(N)(=O)=O)CC4)no2)n1` [Example E16] showed an EC50 [1] of 0.5 to 5 µM and an EC50 [2] of 1.3 µM.

In the case of `Cc1cnc(OC(F)F)cc1-c1nc([C@@H]2C(F)(F)C23CCN(S(N)(=O)=O)CC3)no1` [Example 13, (2R)-2-{5-[2-(Difluoromethoxy)-5-methylpyridin-4-yl]-1,2,4-oxadiazol-3-yl}-1,1-difluoro-6-azaspiro[2.5]octane-6-sulfonamide], the EC50 [1] is reported as < 0.1 µM and the EC50 [2] is reported as 0.073 µM.

For `N#CC1(c2ccccc2-c2nc([C@@H]3CC34CCN(S(N)(=O)=O)CC4)no2)CC1` [Example E75], the EC50 [1] was 5 to 50 µM and the EC50 [2] was 6.3 µM.

`NS(=O)(=O)N1CCC2(CC1)C[C@H]2c1noc(Cc2cc(F)ccc2C(F)(F)F)n1` [Example E9] was tested, and the EC50 [1] was 0.5 to 5 µM.

In the case of `NS(=O)(=O)N1CCC2(CC1)C(c1nc(-c3c(C(F)(F)F)noc3C3CC3)no1)C2(F)F` (stereo not drawn) [Example C16], the EC50 [1] is reported as < 0.1 µM and the EC50 [2] is reported as 0.037 µM.

In the case of `Cc1cnn(C2CC2)c1-c1nc([C@@H]2CC23CCN(S(N)(=O)=O)CC3)no1` [Example E64], the EC50 [1] is reported as 0.5 to 5 µM and the EC50 [2] is reported as 0.52 µM.

In the case of `COc1ccc(Cl)cc1-c1noc(C2CC23CCN(S(=O)(=O)c2ccn(C)n2)CC3)n1` (racemic) [Example B4], the EC50 [1] is reported as 0.5 to 5 µM and the EC50 [2] is reported as 3.2 µM.

`NS(=O)(=O)N1CCC2(CC1)C[C@H]2c1noc(C2CC3(CCC3)C2)n1` [Example E20] was tested, and the EC50 [1] was 0.5 to 5 µM and the EC50 [2] was 2.7 µM.

`Cc1ccc(C)c(-c2nc([C@@H]3CC34CCN(S(N)(=O)=O)CC4)no2)c1` [Example 2, (1R)-1-[5-(2,5-Dimethylphenyl)-1,2,4-oxadiazol-3-yl]-6-azaspiro[2.5]octane-6-sulfonamide] was tested, and the EC50 [1] was < 0.1 µM and the EC50 [2] was 0.082 µM.

For `Cn1cc(-c2nc([C@@H]3C(F)(F)C34CCN(S(N)(=O)=O)CC4)no2)c(C(F)(F)F)n1` [Example 19, (2R)-1,1-Difluoro-2-{5-[1-methyl-3-(trifluoromethyl)-1H-pyrazol-4-yl]-1,2,4-oxadiazol-3-yl}-6-azaspiro[2.5]octane-6-sulfonamide], the EC50 [1] was 0.1 to 0.5 µM and the EC50 [2] was 0.24 µM.
